According to patent publication US20170319661A1, “Methods and Pharmaceutical Compositions Using Orexins (OXA, OXB) for the Treatment of Prostate Cancers” (INSERM (Institut National de la Sante et de la Recherche …, priority 2014, published 2017):
Entries after “also recorded” stand apart in the source; their conditions may differ.

Experiments:
Assay type in all cases: cell-based, human
DU145 cells [1] = assay: Apo-ONE Homogeneous Caspase-3/7 apoptosis assay in DU145 cells (native or neuroendocrine-differentiated); details: 10^-6 M, 3 days
Source text: (§1) Two human-derived CaP cell lines were used, i.e. the androgen-responsive cell line LNCaP, and the androgen-unresponsive cell line DU145 as well as the colorectal adenocarcinoma HT-29 cell line. The three cell lines were purchased from American Type Culture Collection (ATCC, Rockville, Md.). The LNCaP cells were maintained in RPMI 1640 medium supplemented with 10% fetal bovine serum (FBS), 1% penicillin/streptomycin and 1% glutamine (complete medium). The DU145 cells were maintained in Dulbecco modified Eagle's minimal essential medium (DMEM) supplemented with 10% FBS and 1% penicillin/streptomycin (complete medium). The HT-29 cells were maintained in DMEM supplemented with 10% FBS, 1% penicillin/streptomycin and 1% glutamine. […]
(§2) Cell viability was determined by using the CellTiter-Blue® assay (Promega, Charbonnières, France). Cell apoptosis was quantified by evaluating the enzymatic activities of Caspase 3/7 by using the Apo-ONE® Homogeneous Caspase-3/7 Assay (promega). Briefly, the enzymes were measured in intact and differentiated DU145 culture cells after a 3-days incubation with OxA or OxB (10^-6M) in 96-well plates. The cells were incubated with fluorogenic peptide specific to caspase 3 and 7 enzymes, and detection of fluorescent product over time was monitored in a spectrofluorometer Flex Station 3 (Molecular Devices, St. Grégoire, France) at 485 nm excitation and 527 nm emission. […]

HT-29 cells [2] = assay: Apo-ONE Homogeneous Caspase-3/7 apoptosis assay in HT-29 cells (positive control); details: 10^-6 M
DU145 cells [3] = assay: CellTiter-Blue cell viability / growth of DU145 cells; details: native DU145 cells, 10^-6 M, 3 days
Source text: as §1, §2

HT-29 cells [4] = assay: Cell viability / growth of HT-29 cells
Source text: as §1, §2

Orexin-B [OxB]
apoptosis (Caspase 3/7 activity) (DU145 cells [1]; DU145 cells submitted to neuroendocrine differentiation (db-cAMP 1 mM/IBMX 0.1 mM)): promote cell death
apoptosis (Caspase 3/7 activity) (DU145 cells [1]; native DU145 cells): did not alter apoptosis; also recorded: has no effect on the apoptosis rate
apoptosis (Caspase 3/7 activity) (HT-29 cells [2]): promoted significantly the apoptosis
cell growth (DU145 cells [3]): increased cell growth
cell growth (HT-29 cells [4]): inhibited cell growth
